This experiment has as its target T1, human recombinant HPK1 (Homo sapiens, UniProt Q92918).
T1 construct: purchased BPS Bioscience
Description: Inhibitory activity against human recombinant HPK1 (TR-FRET). It counts as biochemical. The conditions noted are these: ULight-p70S6K peptide, ATP at Km, room temperature, 1 hour, 0.32 to 1000 nM compound. An outline of the steps:
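IC50 classes A–D use 10, 50 and 100 nM cut-offs, derived from TR-FRET signal inhibition relative to DMSO controls. Human recombinant HPK1 phosphorylated ULight-p70S6K peptide at Km ATP for 1 h, room temperature, pH 7.4; test range 0.32–1000 nM final, detection with Eu-labelled antibody after EDTA quench.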
(In general: Time-resolved FRET reads energy transfer from a long-lived donor to a nearby acceptor.)

pIC50: −log10 of the molar value. Structures can show the parent of a compound that is named as a salt.

T1 sequence (Q92918 whole entry): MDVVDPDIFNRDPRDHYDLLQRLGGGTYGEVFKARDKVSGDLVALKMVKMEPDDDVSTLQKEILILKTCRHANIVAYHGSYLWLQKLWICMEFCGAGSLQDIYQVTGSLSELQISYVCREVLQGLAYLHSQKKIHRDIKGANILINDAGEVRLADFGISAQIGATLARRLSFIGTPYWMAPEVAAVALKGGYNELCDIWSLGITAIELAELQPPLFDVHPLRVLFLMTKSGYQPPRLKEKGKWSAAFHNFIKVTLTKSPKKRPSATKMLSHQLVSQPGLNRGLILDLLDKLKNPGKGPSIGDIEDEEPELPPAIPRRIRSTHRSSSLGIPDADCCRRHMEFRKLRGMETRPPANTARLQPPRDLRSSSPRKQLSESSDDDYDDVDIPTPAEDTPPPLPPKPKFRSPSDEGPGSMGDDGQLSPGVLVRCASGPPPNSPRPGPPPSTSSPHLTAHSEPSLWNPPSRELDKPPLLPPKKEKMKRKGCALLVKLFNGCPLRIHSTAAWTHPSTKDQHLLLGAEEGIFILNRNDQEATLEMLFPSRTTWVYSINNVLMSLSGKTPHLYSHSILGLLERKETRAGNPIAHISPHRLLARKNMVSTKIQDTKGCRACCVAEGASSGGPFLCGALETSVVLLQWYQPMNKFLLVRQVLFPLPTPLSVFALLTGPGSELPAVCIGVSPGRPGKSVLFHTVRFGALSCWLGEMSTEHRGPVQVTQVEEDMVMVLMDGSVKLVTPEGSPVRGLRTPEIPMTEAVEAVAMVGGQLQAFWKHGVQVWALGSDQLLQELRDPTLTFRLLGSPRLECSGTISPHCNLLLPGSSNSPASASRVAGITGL

By pIC50 is commonly meant the negative decadic logarithm of the IC50, by convention in mol/L. As to `COc1cccc(F)c1-c1nccc(Nc2cc(N3CCC[C@H](O)C3)c(-c3cnn(C(C)C)c3)cn2)n1` [Example 13, (S)-1-(2-((2-(2-fluoro-6-methoxyphenyl)pyrimidin-4-yl)amino)-5-(1-isopropyl-1H-pyrazol-4-yl)pyridin-4-yl)piperidin-3-ol], the pIC50 was at least 8.00.

Consider `COc1cc(F)cc(F)c1-c1nccc(Nc2cc(N3CCC[C@H](O)C3)c(C#Cc3cnn(CC(F)(F)F)c3)cn2)n1` [Example 220, (S)-1-(2-((2-(2,4-difluoro-6-methoxyphenyl)pyrimidin-4-yl)amino)-5-((1-(2,2,2-trifluoroethyl)-1H-pyrazol-4-yl)ethynyl)pyridin-4-yl)piperidin-3-ol], for which the pIC50 is at least 8.00.

On to `COc1cccc(F)c1-c1nccc(Nc2cc(N3CC[C@H](N)[C@H](F)C3)c(-c3cnn(C(F)F)c3)cn2)n1` [Example 307, N-(4-((3R,4S)-4-amino-3-fluoropiperidin-1-yl)-5-(1-(difluoromethyl)-1H-pyrazol-4-yl)pyridin-2-yl)-2-(2-fluoro-6-methoxyphenyl)pyrimidin-4-amine hydrochloride], for which the pIC50 is at least 8.00.

Take `COc1cc(F)cc(F)c1-c1nc(Nc2cc(N3CCC[C@H](N)C3)c(-c3cnn(CC(F)(F)F)c3)cn2)ccc1C#N` [Example 320, 6-((4-((S)-3-aminopiperidin-1-yl)-5-(1-(2,2,2-trifluoroethyl)-1H-pyrazol-4-yl)pyridin-2-yl)amino)-2-(2,4-difluoro-6-methoxyphenyl)nicotinonitrile hydrochloride]: the pIC50 was at least 8.00.

In the case of `COc1cccc(F)c1-c1nc(Nc2cc(N3CCC[C@H](O)C3)c(-c3cnn(C(F)F)c3)cn2)ccc1C(=O)N(C)C` [Example 141, 6-((5-(1-(difluoromethyl)-1H-pyrazol-4-yl)-4-((S)-3-hydroxypiperidin-1-yl)pyridin-2-yl)amino)-2-(2-fluoro-6-methoxyphenyl)-N,N-dimethylnicotinamide], the pIC50 was under 7.00.

With `COc1cccc(F)c1-c1nccc(Nc2cc(N3CCC[C@H](N)C3)c(-c3cnn(CC4CNC4)c3)cn2)n1` [Example 237, (S)-N-(4-(3-aminopiperidin-1-yl)-5-(1-(azetidin-3-ylmethyl)-1H-pyrazol-4-yl)pyridin-2-yl)-2-(2-fluoro-6-methoxyphenyl)pyrimidin-4-amine hydrochloride], the pIC50 was at least 8.00.

Consider `COc1cccc(F)c1-c1nccc(Nc2cc(N3CCC(C(C)(C)CO)CC3)c(-c3cnn(C4CCOCC4)c3)cn2)n1` [Example 67, 2-(1-(2-((2-(2-fluoro-6-methoxyphenyl)pyrimidin-4-yl)amino)-5-(1-(tetrahydro-2H-pyran-4-yl)-1H-pyrazol-4-yl)pyridin-4-yl)piperidin-4-yl)-2-methylpropan-1-ol], for which the pIC50 was at least 8.00.

On to `COc1cccc(F)c1-c1nc(Nc2cc(N3CCC[C@H](O)C3)c(-c3cnn(C(F)(F)F)c3)cn2)ccc1N` [Example 178, (3S)-1-(2-((5-amino-6-(2-fluoro-6-methoxyphenyl)pyridin-2-yl)amino)-5-(1-(trifluoromethyl)-1H-pyrazol-4-yl)pyridin-4-yl)piperidin-3-ol], for which the pIC50 is at least 8.00.

For the compound `COc1cccc(F)c1-c1nc(Nc2cc(N3CC[C@@H](F)[C@H](N)C3)c(-c3cnn(C(F)F)c3)cn2)ccc1F` [Example 341, 4-((3R,4R)-3-amino-4-fluoropiperidin-1-yl)-5-(1-(difluoromethyl)-1H-pyrazol-4-yl)-N-(5-fluoro-6-(2-fluoro-6-methoxyphenyl)pyridin-2-yl)pyridin-2-amine hydrochloride], the pIC50 was at least 8.00.

On to `COc1cccc(F)c1-c1nccc(Nc2cc(N3CCC[C@@H](N)C3)c(-c3cnn(CC(F)(F)F)c3)cn2)n1` [Example 77, (R)-N-(4-(3-aminopiperidin-1-yl)-5-(1-(2,2,2-trifluoroethyl)-1H-pyrazol-4-yl)pyridin-2-yl)-2-(2-fluoro-6-methoxyphenyl)pyrimidin-4-amine hydrochloride], for which the pIC50 was at least 8.00.

`COc1cccc(F)c1-c1nc(Nc2cc(N3CCC[C@H](O)C3)c(C#Cc3cnn(C(F)F)c3)cn2)ccc1[N+](=O)[O-]` [Example 222, (3S)-1-(5-((1-(difluoromethyl)-1H-pyrazol-4-yl)ethynyl)-2-((6-(2-fluoro-6-methoxyphenyl)-5-nitropyridin-2-yl)amino)pyridin-4-yl)piperidin-3-ol]: the pIC50 is at least 8.00.

In the case of `COc1cccc(F)c1-c1nccc(Nc2cc(N3CCC[C@H](N)C3)c(-c3cnn(CCN4CCOCC4)c3)cn2)n1` [Example 162, (S)-N-(4-(3-aminopiperidin-1-yl)-5-(1-(2-morpholinoethyl)-1H-pyrazol-4-yl)pyridin-2-yl)-2-(2-fluoro-6-methoxyphenyl)pyrimidin-4-amine hydrochloride], the pIC50 is at least 8.00.

For the compound `COc1cccc(F)c1-c1nccc(Nc2cc(N3CCC[C@H](C)C3)c(-c3cnn(C(F)F)c3)cn2)n1` [Example 271, (S)-N-(5-(1-(difluoromethyl)-1H-pyrazol-4-yl)-4-(3-methylpiperidin-1-yl)pyridin-2-yl)-2-(2-fluoro-6-methoxyphenyl)pyrimidin-4-amine], the negative-log IC50 (pIC50) was at least 8.00.

On to `COc1cccc(F)c1-c1nccc(Nc2cc(N3CCC[C@H](O)C3)c(-c3cnn(C)c3)cn2)n1` [Example 12, (S)-1-(2-((2-(2-fluoro-6-methoxyphenyl)pyrimidin-4-yl)amino)-5-(1-methyl-1H-pyrazol-4-yl)pyridin-4-yl)piperidin-3-ol], for which the pIC50 is at least 8.00.

`COc1c(F)ccc(F)c1-c1nccc(Nc2cc(N3CCC[C@H](O)C3)c(-c3cnn(C4CCOCC4)c3)cn2)n1` [Example 23, (S)-1-(2-((2-(3,6-difluoro-2-methoxyphenyl)pyrimidin-4-yl)amino)-5-(1-(tetrahydro-2H-pyran-4-yl)-1H-pyrazol-4-yl)pyridin-4-yl)piperidin-3-ol]: the negative-log IC50 (pIC50) is 7.30 to 8.00.

In the case of `COc1cccc(F)c1-c1nccc(Nc2cc(N3CCC[C@H](N)C3)c(-c3ccc4c(c3)OCC(=O)N4C)cn2)n1` [Example 261, (S)-7-(4-(3-aminopiperidin-1-yl)-6-((2-(2-fluoro-6-methoxyphenyl)pyrimidin-4-yl)amino)pyridin-3-yl)-4-methyl-2H-benzo[b][1,4]oxazin-3(4H)-one hydrochloride], the pIC50 was at least 8.00.

On to `COc1cccc(F)c1-c1nccc(Nc2cc(N3CCC(C)(CO)C3)c(-c3cnn(C4CCOCC4)c3)cn2)n1` (stereo not shown) [Example 45, (1-(2-((2-(2-fluoro-6-methoxyphenyl)pyrimidin-4-yl)amino)-5-(1-(tetrahydro-2H-pyran-4-yl)-1H-pyrazol-4-yl)pyridin-4-yl)-3-methylpyrrolidin-3-yl)methanol], for which the pIC50 is under 7.00.

With `COc1cccc(F)c1-c1nccc(Nc2cc(N3C[C@@H](N)CC[C@H]3C)c(-c3cnn(C(F)F)c3)cn2)n1` [Example 252, N-(4-((2R,5S)-5-amino-2-methylpiperidin-1-yl)-5-(1-(difluoromethyl)-1H-pyrazol-4-yl)pyridin-2-yl)-2-(2-fluoro-6-methoxyphenyl)pyrimidin-4-amine], the negative-log IC50 (pIC50) is at least 8.00.

With `COc1cccc(F)c1-c1nccc(Nc2cc(N3CCC[C@H](O)C3)c(C(=O)N[C@@H]3CCN(C)C3)cn2)n1` [Example 192, 6-((2-(2-fluoro-6-methoxyphenyl)pyrimidin-4-yl)amino)-4-((S)-3-hydroxypiperidin-1-yl)-N-((R)-1-methylpyrrolidin-3-yl)nicotinamide], the pIC50 is 7.30 to 8.00.

`OCc1csc(-c2nccc(Nc3cc(N4CCC[C@H](O)C4)c(-c4cnn(C5CCOCC5)c4)cn3)n2)c1` [Example 21, (S)-1-(2-((2-(4-(hydroxymethyl)thiophen-2-yl)pyrimidin-4-yl)amino)-5-(1-(tetrahydro-2H-pyran-4-yl)-1H-pyrazol-4-yl)pyridin-4-yl)piperidin-3-ol]: the pIC50 was 7.30 to 8.00.

As for `COC(=O)c1cc(F)c(-c2nccc(Nc3cc(N4CCC[C@H](N)C4)c(-c4cnn(C(F)F)c4)cn3)n2)c(OC)c1` [Example 185, methyl (S)-4-(4-((4-(3-aminopiperidin-1-yl)-5-(1-(difluoromethyl)-1H-pyrazol-4-yl)pyridin-2-yl)amino)pyrimidin-2-yl)-3-fluoro-5-methoxybenzoate hydrochloride], the pIC50 is at least 8.00.

Take `CNC[C@@H]1CCCN(c2cc(Nc3ccnc(-c4c(F)cccc4OC)n3)ncc2-c2cnn(C(F)F)c2)C1` [Example 266, (S)-N-(5-(1-(difluoromethyl)-1H-pyrazol-4-yl)-4-(3-((methylamino)methyl)piperidin-1-yl)pyridin-2-yl)-2-(2-fluoro-6-methoxyphenyl)pyrimidin-4-amine hydrochloride]: the negative-log IC50 (pIC50) is at least 8.00.

As to `CCOc1cccc(F)c1-c1nccc(Nc2cc(N3CCC[C@H](O)C3)c(-c3cnn(C4CCOCC4)c3)cn2)n1` [Example 25, (S)-1-(2-((2-(2-ethoxy-6-fluorophenyl)pyrimidin-4-yl)amino)-5-(1-(tetrahydro-2H-pyran-4-yl)-1H-pyrazol-4-yl)pyridin-4-yl)piperidin-3-ol], the negative logarithm of the IC50 (pIC50) is 7.30 to 8.00.

On to `O[C@H]1CCCN(c2cc(Nc3ccnc(-c4ccc5cccnc5c4F)n3)ncc2-c2cnn(C3CCOCC3)c2)C1` [Example 29, (S)-1-(2-((2-(8-fluoroquinolin-7-yl)pyrimidin-4-yl)amino)-5-(1-(tetrahydro-2H-pyran-4-yl)-1H-pyrazol-4-yl)pyridin-4-yl)piperidin-3-ol], for which the negative logarithm of the IC50 (pIC50) is at least 8.00.

Regarding `COc1cccc(F)c1-c1nccc(Nc2cc(N3CCC[C@H](O)C3)c(-c3ccc(N4CCOCC4)nc3)cn2)n1` [Example 20, (S)-1-(6-((2-(2-fluoro-6-methoxyphenyl)pyrimidin-4-yl)amino)-6′-morpholino-[3,3′-bipyridin]-4-yl)piperidin-3-ol], the pIC50 is at least 8.00.
